Test results reported in patent publication US20110296540A1, “ASSAY FOR SCREENING ANTIDEPRESSANTS” (priority 2008, published 2011).
Where two headings read alike, the source gives them in different places.

Columns and labels:
HPA axis = experiment: Stress evoked increase of corticosterone levels; format: in vivo, mice; details: acute swim stress; baseline conditions and after chronic corticosterone treatment
Experimental: Adult male C57BL/6Ntac mice were exposed to a 6 minutes swim stress. […]. Blood was collected into ice-chilled tubes containing EDTA and centrifuged at 3000 rpm for 10 min (at 4° C.) for separation of plasma, and plasma samples were stored at −80° C. until assayed. […]; Diagnostic Systems Laboratories, Inc. Webster, Tex.; sensitivity limit: 20 ng/ml). ACTH was measured directly in plasma using an ImmuChem™ Double Antibody hACTH 1251 RIA kit (No. 07-106101; MP Biomedicals, LLC, Orangeburg, N.Y.) with a sensitivity limit ˜5.7 pg/ml. All samples were measured simultaneously to reduce inter-assay variability.

5-HT1A autoreceptors = target: T1, 5-HT1A autoreceptors (Mus musculus, UniProt Q64264)
T1 sequence (Q64264 1-421): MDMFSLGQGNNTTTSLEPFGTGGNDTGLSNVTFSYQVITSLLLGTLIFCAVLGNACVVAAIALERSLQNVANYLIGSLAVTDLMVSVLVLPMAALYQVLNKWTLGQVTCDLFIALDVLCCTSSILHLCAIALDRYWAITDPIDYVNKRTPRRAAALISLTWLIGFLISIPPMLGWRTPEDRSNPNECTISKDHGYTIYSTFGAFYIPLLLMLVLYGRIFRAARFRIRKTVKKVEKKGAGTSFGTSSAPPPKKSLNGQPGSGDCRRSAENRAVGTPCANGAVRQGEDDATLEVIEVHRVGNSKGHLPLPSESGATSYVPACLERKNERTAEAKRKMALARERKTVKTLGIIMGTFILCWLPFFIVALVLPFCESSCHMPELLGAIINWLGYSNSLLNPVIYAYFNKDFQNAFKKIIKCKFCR
Experimental: (A) 8-OH DPAT-induced hypothermia in 1A-High and 1A-Low mice. Following establishment of baseline body temperature, animals received IP injections of 0.1 mg/kg 8-OHDAPT, 0.5 mg/kg 8-OH DPAT, or saline (N=5/dose/group). Values are expressed as core temperature change from the last recorded baseline temperature.

[1] = tested on: doublecortin positive cells; experiment: Doublecortin (DCX) labeling for maturation index study, corticosterone model; format: in vivo, mice
Text: The secondary antibody was biotinylated donkey anti-goat (1:500) (Jackson ImmunoResearch, West Grove, Pa.) in PBS for 2 hr at room temperature. Sections were developed using avidin-biotin complex (Vector, USA) and DAB kit.

[2] = tested on: β-arrestin 2 knock out mice; experiment: Forced Swim Test in β-arrestin 2 knock out mice and littermates; format: in vivo; details: relative to the control group
Experimental: The forced swim test procedure was modified relative to the traditional method, so as to enhance sensitivity for detecting the putative antidepressant activity of drugs (Porsolt et al., 1977). The modifications consist of an increase in water depth (Dulawa et al., 2004). Mice were placed into plastic buckets (19 cm diameter, 23 cm deep, filled with 23-25° C. water) and videotaped for 6 min to score immobility duration.

[3] = tested on: β-arrestin 2 knock out mice; experiment: Novelty Suppressed Feeding paradigm in β-arrestin 2 knock out mice and littermates; format: in vivo
Text: Twenty-four hours prior to behavioral testing, all food was removed from the home cage. At the time of testing, a single pellet of food (regular chow) was placed on a white paper platform positioned in the center of the box.

C57BL/6Ntac mice = experiment: Splash test (grooming); format: in vivo; details: corticosterone, without or with 3 weeks of fluoxetine 18 mg/kg/day; mean±SEM
Experimental: This test consisted in squirting 200 ul of a 10% sucrose solution on the mouse's snout. The grooming duration and grooming frequency were then recorded.

Creb-1 gene = tested on: Creb-1 gene
Experimental: Tissue preparation: Animals were sacrificed by cervical dislocation. Selected brain regions were dissected and placed in tubes containing RNAlater (Ambion), incubated at 4 degrees C. overnight and stored at −80 degrees C. until processing.
Brain regions (10-20 mg) were homogenized for 20 sec at medium speed in 1.25 ml lysis/denaturation buffer (Ambion) using an Autogizer™ (Tomtec). Total RNA was isolated from 100-300 ul aliquots of the homogenate using the RNAqueous™ 96 automated kit (Ambion) according to the manufacturer's protocol. A second DNase I digestion was incorporated after elution of the RNA from the Ambion filter plate to remove residual genomic DNA. Digestion was performed for 1 hr at room temperature using DNase I™ (Invitrogen) and the buffer supplied with the enzyme. After inactivation of the DNase with EDTA and heat, the RNA was desalted with a Multiscreen™ filter plate (Millipore) and stored at −80° C. Conversion of total RNA into first strand cDNA was accomplished with Superscript II™ enzyme (Invitrogen) followed by desalting over a Multiscreen plate. Approximately 1 ug of total RNA was used for each cDNA reaction. The yield of cDNA was determined using Quant-iT Oligreen™ reagent (Invitrogen). Prior to the Oligreen assay, total RNA carried over from the cDNA reaction was hydrolyzed with NaOH and heat, followed by neutralization with Tris buffer. This treatment eliminates any contribution of the RNA to the Oligreen signal. The unknown cDNA samples were compared to a standard curve derived using a 18mer oligonucleotide. Replica cDNA plates containing 3 ng of cDNA per well were prepared using an Evolution P3™ workstation (PerkinElmer). Each animal in a given experiment was represented by one well on each plate and each plate always contained the control and treatment groups.
Quantitative PCR (qPCR) was carried out in 25 ul reactions using Full Velocity™ enzyme (Stratagene). Plates were run on either a Stratagene MX3000P™ or an Applied Biosystems 7900 HT instrument. The cycling parameters were set based on recommendations from the enzyme manufacturer. One gene expression profile was analyzed per PCR plate and duplicate plates were run for each gene. Two housekeeping genes, cyclophilin and GAPDH, were included in the gene list and were used to normalize the expression results obtained from the other genes of interest (see data analysis section). The sequences of the primers and probes for each gene are listed in supplemental table 1. Duplicate cycle thresholds (Ct values) were obtained for each gene/region and averaged. The values for cyclophilin and GAPDH were combined and used to normalize the expression values from the other genes by employing the delta Ct method. After converting delta Ct values to percentage, the mean and SEM of each animal group (controls and experimental) was calculated.
Tissue preparation, RNA extraction, DNA preparation and qPCR analysis were described in the materials and methods section. Data analysis and statistics Results from data analyses were expressed as mean±SEM. Data were analyzed using StatView 5.0 software (SAS Institute, Cary, N.C.).

For CNCCC(Oc1ccc(C(F)(F)F)cc1)c1ccccc1 (centres unmarked) [fluoxetine], the “stress induced corticosterone levels” value (HPA axis) was “had no effect”, the “hypothermic response to 8-OH DPAT after chronic fluoxetine” value (5-HT1A autoreceptors; 1A-High mice treated with fluoxetine for 30 days) was “no hypothermic response” and the “hypothermic response to 8-OH DPAT after chronic fluoxetine” value (5-HT1A autoreceptors; 1A-Low mice treated with fluoxetine for 30 days) was “blunted hypothermic response”. For the same molecule, the “number of doublecortin positive cells with tertiary dendrites” value ([1]; chronic fluoxetine, control animals) was “increased”, the “effect of fluoxetine on the number of doublecortin positive cells and their dendritic morphology” value ([1]; in the presence of corticosterone, compared with controls) was “even more pronounced” and the “immobility (FST)” value ([2]; wild-type mice) was “decrease in immobility”. For the same molecule, the “immobility (FST)” value ([2]; β-arrestin 2 knockout mice) was “decrease in immobility”, the “latency to feed (NSF)” value ([3]; mutant (β-arrestin 2 knock out) mice) was “had no effect” and the “latency to feed (NSF)” value ([3]; wild-type mice) was “significantly decreased”. The “grooming duration (splash test)” value (C57BL/6Ntac mice) was 99.8 s, the “grooming frequency (splash test)” value (C57BL/6Ntac mice) was 9±1 and the Creb-1 gene expression (Creb-1 gene; amygdala) was “unchanged”. For the same molecule, the Creb-1 gene expression (Creb-1 gene; hippocampus) was “unchanged” and the Creb-1 gene expression (Creb-1 gene; hypothalamus) was “unchanged”.
